From patent US20210307272A1, “USE OF PLANT GROWTH REGULATORS TO ENHANCE ALGAE GROWTH FOR THE PRODUCTION OF ADDED VALUE PRODUCTS” (priority 2009, published 2021) come the findings set out here.

Common to all, as to format: cell-based
For experiment [1], the system named is Chlorella protothecoides. The experiment can be described thus: Effect of hormone concentrations on growth rate of Chlorella protothecoides, photoheterotrophic. The conditions noted are these: 48 hours, control 1.05. The method, then: The influence of light exposure during Scenedesmus obliquus and Chlorella protothecoides growth was assessed. The growth rates of both algae were higher in photoheterotrophic growth conditions. The Scenedesmus obliquus growth rate was about 86.7% higher under photoheterotrophic growth. Meanwhile, the Chlorella protothecoides growth rate increased 39.07% when the growth was conducted under photoheterotrophic growth.

The test system of experiment [2] is Scenedesmus obliquus. Description: Effect of hormone concentrations on growth rate of Scenedesmus obliquus, photoheterotrophic. As to conditions: 48 hours, control 0.41.
Experiment [3] deals with Scenedesmus obliquus. The experiment can be described thus: Effect of hormone concentrations on growth rate of Scenedesmus obliquus, heterotrophic. The conditions noted are these: 48 hours, control 0.35.
For experiment [4], the system named is Chlorella protothecoides. The experiment can be described thus: Effect of hormone concentrations on growth rate of Chlorella protothecoides, heterotrophic. As to conditions: 48 hours, control 1.54.
For experiment [5], the system named is Auxenochlorella protothecoides. The experiment can be described thus: Auxenochlorella protothecoides culture with growth regulator, dry weight and oil after seven days. The conditions noted are these: 2 mg/L. The method, then: Auxenochlorella protothecoides was grown in Bristol's medium (see above) amended with 0.1% yeast extract (see above) and 0.5% glucose (control cells). Two other groups were cultured in the same medium with either indole acetic acid (2 mg/L, Cat. No. 12886, Sigma-Aldrich Canada Ltd.) or giberellic acid (2 mg/L, Cat. No. G7645, Sigma-Aldrich Canada Ltd.) added. Dry weights were determined and compared between the culture groups after seven days.

Regarding `O=C(O)Cc1cccc2ccccc12` [1-Naphthaleneacetic acid], the growth rate was 1.00 in the experiment with Chlorella protothecoides [1] (0.01 ng); 1.02 in the experiment on Chlorella protothecoides [1] (0.1 ng); 1.05 with Chlorella protothecoides [1] (1 ng); 1.07 in the experiment with Chlorella protothecoides [1] (10 ng); 1.16 with Chlorella protothecoides [1] (100 ng); 0.84 in the experiment on Scenedesmus obliquus [2] (0.01 ng). Also, the growth rate in the experiment with Scenedesmus obliquus [2] (0.1 ng) came out at 0.85; with Scenedesmus obliquus [2] (1 ng) it was 0.81; in the experiment with Scenedesmus obliquus [2] (10 ng), 0.80; in the experiment on Scenedesmus obliquus [2] (100 ng), 0.73; in the experiment on Scenedesmus obliquus [3] (0.01 ng), 0.26; with Scenedesmus obliquus [3] (0.1 ng), 0.28. Besides, the growth rate in the experiment with Scenedesmus obliquus [3] (1 ng) is 0.33; in the experiment with Scenedesmus obliquus [3] (10 ng), 0.28; in the experiment on Scenedesmus obliquus [3] (100 ng) it was 0.39; in the experiment on Chlorella protothecoides [4] (0.01 ng), 1.66; in the experiment on Chlorella protothecoides [4] (0.1 ng) it was 1.54; in the experiment on Chlorella protothecoides [4] (1 ng) it was 1.62. Besides, the growth rate was determined as 1.57 with Chlorella protothecoides [4] (10 ng) and 1.62 in the experiment with Chlorella protothecoides [4] (100 ng).

`O=C(O)COc1ccc(Cl)cc1Cl` [2,4-Dichlorophenoxyacetic, 2,4-dichlorophenoxyacetic acid]: the growth rate is recorded as 1.09 in the experiment with Chlorella protothecoides [1] (0.01 ng); 1.08 in the experiment with Chlorella protothecoides [1] (0.1 ng); 1.01 in the experiment on Chlorella protothecoides [1] (1 ng); 1.08 with Chlorella protothecoides [1] (10 ng); 1.03 with Chlorella protothecoides [1] (100 ng); 0.42 with Scenedesmus obliquus [2] (0.01 ng). Besides, the growth rate is listed as 0.44 with Scenedesmus obliquus [2] (0.1 ng); 0.47 in the experiment with Scenedesmus obliquus [2] (1 ng); 0.44 in the experiment on Scenedesmus obliquus [2] (10 ng); 0.33 in the experiment on Scenedesmus obliquus [2] (100 ng); 0.28 with Scenedesmus obliquus [3] (0.01 ng); 0.23 with Scenedesmus obliquus [3] (0.1 ng). The growth rate in the experiment with Scenedesmus obliquus [3] (1 ng) is recorded as 0.31; in the experiment on Scenedesmus obliquus [3] (10 ng), 0.24; with Scenedesmus obliquus [3] (100 ng), 0.23; in the experiment on Chlorella protothecoides [4] (0.01 ng) it was 1.40; in the experiment with Chlorella protothecoides [4] (0.1 ng) it was 1.53; in the experiment on Chlorella protothecoides [4] (1 ng), 1.43. Also, the growth rate in the experiment with Chlorella protothecoides [4] (10 ng) was found to be 1.31; with Chlorella protothecoides [4] (100 ng), 1.50.

Consider `c1ccc(CNc2ncnc3nc[nH]c23)cc1` [6-Benzylaminopurine, 6-benzylaminopurine], for which the growth rate is recorded as 1.00 in the experiment on Chlorella protothecoides [1] (0.01 ng); 1.12 in the experiment with Chlorella protothecoides [1] (0.1 ng); 1.07 with Chlorella protothecoides [1] (1 ng); 1.04 in the experiment with Chlorella protothecoides [1] (10 ng); 1.08 in the experiment on Chlorella protothecoides [1] (100 ng); 0.46 in the experiment on Scenedesmus obliquus [2] (0.01 ng). The growth rate with Scenedesmus obliquus [2] (0.1 ng) was found to be 0.37; with Scenedesmus obliquus [2] (1 ng) it was 0.47; in the experiment on Scenedesmus obliquus [2] (10 ng), 0.47; with Scenedesmus obliquus [2] (100 ng), 0.52; in the experiment with Scenedesmus obliquus [3] (0.01 ng), 0.28; with Scenedesmus obliquus [3] (0.1 ng), 0.32. Moreover, the growth rate in the experiment on Scenedesmus obliquus [3] (1 ng) was 0.39; in the experiment with Scenedesmus obliquus [3] (10 ng) it was 0.36; in the experiment on Scenedesmus obliquus [3] (100 ng), 0.33; in the experiment on Chlorella protothecoides [4] (0.01 ng), 1.48; in the experiment with Chlorella protothecoides [4] (0.1 ng), 1.54; in the experiment on Chlorella protothecoides [4] (1 ng), 1.50. Besides, the results for the growth rate in the experiment on Chlorella protothecoides [4] (10 ng) and in the experiment on Chlorella protothecoides [4] (100 ng) were 1.52 and 1.46, respectively.

In the case of `C=C1C[C@]23C[C@@]1(O)CC[C@H]2[C@@]12C=C[C@H](O)[C@@](C)(C(=O)O1)[C@H]2[C@@H]3C(=O)O` [Gibberellic acid], the growth rate is on record as 1.06 in the experiment with Chlorella protothecoides [1] (0.01 ng); 1.02 in the experiment with Chlorella protothecoides [1] (0.1 ng); 1.00 with Chlorella protothecoides [1] (1 ng); 1.09 with Chlorella protothecoides [1] (10 ng); 1.10 in the experiment on Chlorella protothecoides [1] (100 ng); 0.59 in the experiment on Scenedesmus obliquus [2] (0.01 ng). In addition, the growth rate was found to be 0.47 in the experiment with Scenedesmus obliquus [2] (0.1 ng); 0.56 with Scenedesmus obliquus [2] (1 ng); 0.56 with Scenedesmus obliquus [2] (10 ng); 0.51 in the experiment on Scenedesmus obliquus [2] (100 ng); 0.44 in the experiment with Scenedesmus obliquus [3] (0.01 ng); 0.50 in the experiment with Scenedesmus obliquus [3] (0.1 ng). The growth rate in the experiment with Scenedesmus obliquus [3] (1 ng) was found to be 0.43; in the experiment on Scenedesmus obliquus [3] (10 ng), 0.36; in the experiment with Scenedesmus obliquus [3] (100 ng), 0.42; in the experiment on Chlorella protothecoides [4] (0.01 ng) it was 1.52; in the experiment with Chlorella protothecoides [4] (0.1 ng) it was 1.52; in the experiment on Chlorella protothecoides [4] (1 ng) it was 1.46. The values for the growth rate in the experiment on Chlorella protothecoides [4] (10 ng) and in the experiment on Chlorella protothecoides [4] (100 ng) were 1.52 and 1.46, respectively. The “increase of dry cell mass relative to the control” value in experiment [5] worked out at 20%.

Turning to `O=C(O)Cc1c[nH]c2ccccc12` [Indole-3-acetic acid, indole-3-acetic acid], the growth rate with Chlorella protothecoides [1] (0.01 ng) was determined as 1.06; in the experiment with Chlorella protothecoides [1] (0.1 ng) it was 1.05; in the experiment on Chlorella protothecoides [1] (1 ng) it was 0.97; in the experiment with Chlorella protothecoides [1] (10 ng), 1.13; in the experiment on Chlorella protothecoides [1] (100 ng), 1.02; in the experiment with Scenedesmus obliquus [2] (0.01 ng) it was 0.42. The growth rate in the experiment with Scenedesmus obliquus [2] (0.1 ng) was 0.47; in the experiment with Scenedesmus obliquus [2] (1 ng) it was 0.49; in the experiment with Scenedesmus obliquus [2] (10 ng) it was 0.49; with Scenedesmus obliquus [2] (100 ng), 0.62; in the experiment with Scenedesmus obliquus [3] (0.01 ng) it was 0.23; with Scenedesmus obliquus [3] (0.1 ng), 0.36. For the same molecule, the growth rate with Scenedesmus obliquus [3] (1 ng) is given as 0.42; in the experiment with Scenedesmus obliquus [3] (10 ng), 0.47; in the experiment on Scenedesmus obliquus [3] (100 ng), 0.41; in the experiment with Chlorella protothecoides [4] (0.01 ng), 1.62; in the experiment on Chlorella protothecoides [4] (0.1 ng) it was 1.61; in the experiment on Chlorella protothecoides [4] (1 ng) it was 1.49. The growth rate with Chlorella protothecoides [4] (10 ng) and in the experiment on Chlorella protothecoides [4] (100 ng) was 1.60 throughout. Also, the “increase of dry cell mass relative to the control” value in experiment [5] stood at 50%. The “increase of oil production” value in experiment [5] came out at 15%.

Regarding `c1coc(CNc2ncnc3[nH]cnc23)c1` [Kinetin, kinetin], the growth rate in the experiment on Chlorella protothecoides [1] (0.01 ng) was 1.08; with Chlorella protothecoides [1] (0.1 ng) it was 1.10; with Chlorella protothecoides [1] (1 ng) it was 1.02; in the experiment with Chlorella protothecoides [1] (10 ng), 1.18; with Chlorella protothecoides [1] (100 ng) it was 1.19; with Scenedesmus obliquus [2] (0.01 ng), 0.57. The growth rate with Scenedesmus obliquus [2] (0.1 ng) came out at 0.73; with Scenedesmus obliquus [2] (1 ng), 0.92; in the experiment with Scenedesmus obliquus [2] (10 ng) it was 0.37; with Scenedesmus obliquus [2] (100 ng), 0.36; in the experiment on Scenedesmus obliquus [3] (0.01 ng) it was 0.28; with Scenedesmus obliquus [3] (0.1 ng), 0.26. Besides, the growth rate in the experiment on Scenedesmus obliquus [3] (1 ng) came out at 0.36; with Scenedesmus obliquus [3] (10 ng) it was 0.31; with Scenedesmus obliquus [3] (100 ng), 0.28; in the experiment with Chlorella protothecoides [4] (0.01 ng), 1.60; with Chlorella protothecoides [4] (0.1 ng) it was 1.50; in the experiment on Chlorella protothecoides [4] (1 ng) it was 1.44. Also, the growth rate is reported as 1.60 in the experiment with Chlorella protothecoides [4] (10 ng) and 1.58 with Chlorella protothecoides [4] (100 ng).
